Experimental data from the supplement of paper PMC8920030.

Key:
Conditions in all cases: growth mode: biofilm, 24 h; exposure time: 24 h
[1] = compound: T1, NC[C@H]1O[C@H](O[C@H]2[C@H](O)[C@@H](O[C@H]3O[C@H](CO)[C@@H](O)[C@H](N)[C@H]3O)[C@H](N)C[C@@H]2N)[C@H](N)C[C@@H]1O [tobramycin]; assay: minimum concentration of killing, 2-log CFU reduction of biofilm (MCK99); higher = more biofilm tolerance
Description: (§1)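 Clinical P. aeruginosa isolates were grown as static biofilms for 24 h at 37 °C in LB in half-area 96-well plates, then exposed for 24 h to tobramycin at 1, 4, 16, 64, 256 or […]. Surviving CFU were counted by spotting serial dilutions. MCK is the lowest tested concentration giving the stated log reduction in CFU versus an untreated control; '>1024' means the reduction was not reached at the top dose, and 1 is the lowest dose tested (≤1).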

[2] = compound: T1, tobramycin; assay: minimum concentration of killing, 4-log CFU reduction of biofilm (MCK99.99); higher = more biofilm tolerance
Description: as §1

[3] = compound: T1, tobramycin; assay: minimum concentration eradicating biofilm below detection limit (MCK-E); higher = more biofilm tolerance
Description: as §1

[4] = compound: T2, CCC(C)CCCC(=O)N[C@@H](CCN)C(=O)N[C@H](C(=O)N[C@@H](CCN)C(=O)N[C@H]1CCNC(=O)[C@H]([C@@H](C)O)NC(=O)[C@H](CCN)NC(=O)[C@H](CCN)NC(=O)[C@H](CC(C)C)NC(=O)[C@@H](CC(C)C)NC(=O)[C@H](CCN)NC1=O)[C@@H](C)O [colistin]; assay: minimum concentration of killing, 1-log CFU reduction of biofilm (MCK90); higher = more biofilm tolerance
Description: (§2)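 Clinical P. aeruginosa isolates were grown as static biofilms for 24 h at 37 °C in LB in half-area 96-well plates, then exposed for 24 h to colistin at 1, 4, 16, 64, 256 or […]. Surviving CFU were counted by spotting serial dilutions. MCK is the lowest tested concentration giving the stated log reduction in CFU versus an untreated control; '>1024' means the reduction was not reached at the top dose, and 1 is the lowest dose tested (≤1).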

[5] = compound: T2, colistin; assay: minimum concentration of killing, 2-log CFU reduction of biofilm (MCK99); higher = more biofilm tolerance
Description: as §2

[6] = compound: T2, colistin; assay: minimum concentration eradicating biofilm below detection limit (MCK-E); higher = more biofilm tolerance
Description: as §2

[7] = compound: T2, colistin; assay: minimum concentration of killing, 4-log CFU reduction of biofilm (MCK99.99); higher = more biofilm tolerance
Description: as §2

[8] = compound: T1, tobramycin; assay: minimum concentration of killing, 1-log CFU reduction of biofilm (MCK90); higher = more biofilm tolerance
Description: as §1

Pseudomonas aeruginosa clinical isolate F2010
minimum concentration of killing [1]: 64 µg/mL | minimum concentration of killing [2]: 256 µg/mL | minimum concentration eradicating biofilm below detection limit [3]: 1020 µg/mL | minimum concentration of killing [4]: 64 µg/mL | minimum concentration of killing [5]: 256 µg/mL | minimum concentration eradicating biofilm below detection limit [6]: 1020 µg/mL | minimum concentration of killing [7]: 256 µg/mL | minimum concentration of killing [8]: 64 µg/mL

Pseudomonas aeruginosa clinical isolate F2017
minimum concentration of killing [1]: 256 µg/mL | minimum concentration of killing [2]: 256 µg/mL | minimum concentration eradicating biofilm below detection limit [3]: > 1020 µg/mL | minimum concentration of killing [4]: 4 µg/mL | minimum concentration of killing [5]: 64 µg/mL | minimum concentration eradicating biofilm below detection limit [6]: > 1020 µg/mL | minimum concentration of killing [7]: 256 µg/mL | minimum concentration of killing [8]: 16 µg/mL

Pseudomonas aeruginosa clinical isolate F2020
minimum concentration of killing [1]: 16 µg/mL | minimum concentration of killing [2]: 256 µg/mL | minimum concentration eradicating biofilm below detection limit [3]: 1020 µg/mL | minimum concentration of killing [4]: 16 µg/mL | minimum concentration of killing [5]: 64 µg/mL | minimum concentration eradicating biofilm below detection limit [6]: 256 µg/mL | minimum concentration of killing [7]: 64 µg/mL | minimum concentration of killing [8]: 16 µg/mL
